In patent US20230355674A1, “DONOR T-CELLS WITH KILL SWITCH” (CSL Behring LLC, priority 2020, published 2023):
“Also recorded” adds a separate entry of the source.

Assays:
[1] = 6-TG selection and 6-TG challenge of gRNA modified CEM cells (cell viability); type: cell-based; conditions: human, wild type (unmodified) CEM T cell leukemia cells; wild type CEM, 6-TG at 40 uM
Procedure: (§1) Cells confirmed to be transfected with the gRNA via the use of the tracr RNA (24 hours post electroporation) were purified using fluorescence activated cells sorting (FACS) prior to culture in 10 μM 6-TG for 1 week replenished with fresh 6-TG every 48-72 hours.
(§2) After 10 days in the presence of 10 uM 6-TG, replenished with fresh 6-TG every 48-72 hours, each cell line was challenged with increasing concentrations of 6-thioguanine (6-TG) and cell viability was compared to wild type (unmodified) CEM cells (see FIG. 40B).

CEM cells = test: Negative selection with MTX or MPA, transduced or transfected CEM cells; type: cell-based; conditions: 1 μM or 10 μM of MPA, day 0 to day 14
Procedure: Transduced or transfected CEM cells (such as those from Example 1) were cultured with or without MTX from day 0 to day 14. The medium was refreshed every 3 to 4 days. GFP was analyzed on flow machine and InDel % was analyzed by T7E1 assay.

HPRT protein [2] = test: Western blot of HPRT protein in Jurkat cells; type: cell-based, human; conditions: vs unmodified (WT)
Procedure: (§3) Jurkat cells were electroporated with a ribonucleoprotein (RNP) complex containing guide RNA (gRNA; GS-4; designated IDT-4) together with the Cas9 and tracrRNA. Cells which were confirmed to be transfected with the gRNA via tracr RNA were purified using fluorescence activated cells sorting (FACS) and subsequently cultured for 72 hours. Increasing concentrations of 6-thioguanine (6-TG) were then administered to the transduced cultured cells to assess resistance. Wild type (unmodified) Jurkat cells were used as a control.
Unmodified (WT) and IDT-4 modified Jurkat cells were also analyzed for HPRT protein using Western blot (see FIG. 25). […] Actin protein detection (bottom panel) was used as a protein loading control.

Jurkat cells [3] = test: HPRT knockout Jurkat cells, resistance to 6-TG (luminescence, ATP detection); type: cell-based; conditions: 6-TG tested up to 10 uM, vs wild type
Procedure: as §3
Luminescence (ATP detection) was used to assess cell viability.

Jurkat cells [4] = test: HPRT knockout Jurkat cells, MTX dose response; type: cell-based; conditions: MTX 0.00625 and 0.0125 μM, cultured for 5 days
Procedure: Jurkat cells (unmodified; WT) were cultured with increasing concentrations of methotrexate (MTX) to determine the MTX dosage window required to kill WT cells (see FIG. 28). A dose range of between 0.00625 and 0.025 μM MTX was selected for subsequent assessment of HPRT Knockout (IDT-4 modified) Jurkat cells.
Dose response of HPRT Knockout (IDT-4 modified) Jurkat cells to MTX was compared to unmodified Jurkat cells (WT) to determine sensitivity to MTX (see FIG. 29).

HPRT protein [5] = test: Western blot of HPRT protein in gRNA modified CEM cells; type: cell-based, human
Procedure: (§4) CEM T cell leukemia cells were electroporated (1600V, 10 ms pulse width, 3 pulses by using the Neon Transfection system) with ribonucleoprotein (RNP) complexes containing guide RNA (see Example 21) designed in-house and obtained from Integrated DNA Technologies (IDT), together with Cas9 and tracrRNA. Cells confirmed to be transfected with the gRNA via the use of the tracr RNA (24 hours post electroporation) were purified using fluorescence activated cells sorting (FACS) prior to culture for a further 72 hours, followed by assessment of cell survival when challenged with increasing concentrations of 6-thioguanine (6-TG) compared to wild type (unmodified) CEM cells.
Unmodified and modified CEM cells were also used for isolation of protein and detection of the HPRT protein using Western blot (FIG. 39, top panel). […] Actin protein detection (FIG. 39, bottom panel) was used as a protein loading control.
as §4, with “(gRNA; legend)” for “(see Example 21)”, “10 days in the presence” for “a further 72 hours, followed by assessment”, “10 uM 6-TG, replenished” for “cell survival when challenged”, “fresh 6-TG every 48-72 hours.” for “increasing concentrations of 6-thioguanine (6-TG) compared to wild type (unmodified) CEM cells.”
Following the selection period, protein was extracted from each cell and used for western blot-based detection of the HPRT protein. Detection of beta-actin was used as a protein loading control (Actin Antibody (ACTBD11B7): sc-81178. Santa Cruz).

HPRT1 gene [6] = test: ICE scoring (indel, knockout score) of gRNA editing in primary T cells; type: cell-based; conditions: primary human T cells
Description: (§5) Indel Percentage—The editing efficiency (percentage of the pool with non-wild type sequence) as determined by comparing the edited trace to the control trace. In the ICE algorithm, potential editing outcomes are proposed and fitted to the observed data using linear regression.
(§6) Knockout Score—Represents the proportion of cells that have either a frameshift or 21+bp indel. This score is a useful measure for those who are interested in understanding how many of the contributing indels are likely to result in a functional Knockout (KO) of the targeted gene.
FIG. 44 illustrates a method of modifying primary T-cells in accordance with one embodiment of the present disclosure. FIGS. 45A-45C illustrate 6-TG dose responses seven days following the modification of the primary T-cells in accordance with the modification methods described herein. In particular, FIGS. 45A and 45B illustrate the targeting of Exon 3 (guide RNA 13) and Exon 8 (guide RNA 21). The references “#9” and “#10” denote T-cell number and UT control (electroporated without RNP). […]
(§7) Peripheral blood mononuclear cells (PBMC) were isolated from Australian Red Cross Blood donor samples (n=2) via density centrifugation. […] By day 7, the original mixed PBMC population was determined to be primarily CD3+ T cells (flow cytometry; data not shown).

primary human T cells [7] = test: 6-TG resistance of gRNA modified primary human T cells (viability); type: cell-based; conditions: donors #9 and #10, 1 uM 6-TG, day 8 and day 13, vs unmodified
Description: FIG. 44 illustrates a method of modifying primary T-cells in accordance with one embodiment of the present disclosure. FIGS. 45A-45C illustrate 6-TG dose responses seven days following the modification of the primary T-cells in accordance with the modification methods described herein. In particular, FIGS. 45A and 45B illustrate the targeting of Exon 3 (guide RNA 13) and Exon 8 (guide RNA 21). The references “#9” and “#10” denote T-cell number and UT control (electroporated without RNP). FIG. 45C illustrates unmodified cells from donor #9 and donor #10 tested with increasing concentrations of 6-TG (day 4). It was observed that the […] primary T-cells were very sensitive to low doses of 6-TG. ICE Scores are shown below.
as §7
The cells were then cultured for about 7 and about 12 days in the presence of 1 uM 6-TG, with 6-TG replenished every about 2 to about 3 days. At each of these time points, the cells were assessed for the proportion of viable cells compared to untreated (UT) controls.

primary human T cells [8] = test: MTX dose response in 6-TG selected primary human T cells; type: cell-based; conditions: primary human T cells after 12 days 1 μM 6-TG, MTX dose range 2 days, thymidine 16 μM
Procedure: Primary human T cells modified using guide RNAs targeting the HPRT1 gene and subsequently placed under selection pressure for 12 days with 1 μM 6-TG, with 6-TG replenished every 2 to 3 days, were subjected to a dose range of MTX in the presence of thymidine 16 μM for 2 days and assessed for cell viability.

[9] = test system: CEM T cell leukemia cells; test: 6-TG selection and 6-TG challenge of gRNA modified CEM cells (cell viability); type: cell-based; conditions: CEM, 10 μM 6-TG for 1 week, vs wild-type
Procedure: as §1, §2

HPRT1 gene [10] = test: ICE scoring (indel, knockout score) of gRNA editing in CEM cells; type: cell-based, human
Description: The top candidate guide RNAs from Example 21 were screen in Jurkat cell lines (n=1) and validated in CEM cell lines (n=2). For instance, Jurkat cells were electroporated with a ribonucleoprotein (RNP) complex containing guide RNA (e.g. an RNP including a guide RNA having any one of SEQ ID NOS: 40-49) together with the Cas9 and tracrRNA. The methodology and analysis was the same for both Jurkat cell lines and CEM cell lines (see also, FIG. 37). Following electroporation, cell viability was measured at different concentrations of 6-TG (see FIG. 36).
as §5, §6, §4

[11] = after 10 days of 6-TG selection (10 uM)

## Nc1nc2nc[nH]c2c(=S)[nH]1 [6-TG, 6-thioguanine, reference compound]
[1]
  viability at 40 µM: ~10%

## COc1c(C)c2c(c(O)c1C/C=C(\C)CCC(=O)O)C(=O)OC2 [MPA, Mycophenolic acid]
CEM cells
  HPRT knockout population of CEM cells: eliminated at a faster pace
CEM cells; CEM cells
  GFP population of transduced (HPRT knockdown) cells: decreased

## IDT-4: lead HPRT knockout guide RNA GGTTATGACCTTGATTTATT (listed as DNA, chemistry not given here)
HPRT protein [2]
  HPRT protein level (Western blot): undetectable levels of HPRT
Jurkat cells [3]
  cell viability with increasing doses of 6-TG: resistance to increasing doses of 6-TG
Jurkat cells [4]
  sensitivity to MTX compared to wild type cells: increased sensitivity to MTX

## gRNA 12: sgRNA guide and PAM GCCCCCCTTGAGCACACAGAGGG, HPRT 1 target Exon 4 (listed as DNA, chemistry not given here)
HPRT protein [5]; 72 hours post-electroporation, no 6-TG selection, listed as guide 12
  HPRT protein (Western blot): undetectable levels of HPRT; also recorded: non-detectable
HPRT protein [5]; [11]
  HPRT protein (Western blot): remained undetectable

## gRNA 13: sgRNA guide and PAM AGCCCCCCTTGAGCACACAGAGG, HPRT 1 target Exon 3 (listed as DNA, chemistry not given here)
HPRT1 gene [6]
  knockout efficiency (ICE scoring): about 43%
HPRT protein [5]; 72 hours post-electroporation, no 6-TG selection, listed as guide 13
  HPRT protein (Western blot): undetectable levels of HPRT; also recorded: non-detectable
HPRT protein [5]; [11]
  HPRT protein (Western blot): remained undetectable
Primary human T cells [7]
  proportion of viable cells under 6-TG: increased viability
Primary human T cells [8]
  sensitivity to MTX compared to wild-type non-modified cells (UT): increased sensitivity to MTX

## gRNA 15: sgRNA guide and PAM GATGTGATGAAGGAGATGGGAGG, HPRT 1 target Exon 3 (listed as DNA, chemistry not given here)
[9]
  cell viability under 6-TG selection: more variable viability
HPRT protein [5]; [11]
  HPRT protein (Western blot): limited to no detectable levels of HPRT
HPRT1 gene [10]
  editing (ICE scoring), in words: efficient editing

## gRNA 17: sgRNA guide and PAM GTAGCCCTCTGTGTGCTCAAGGG, HPRT 1 target Exon 3 (listed as DNA, chemistry not given here)
HPRT protein [5]; 72 hours post-electroporation, no 6-TG selection, listed as guide 17
  HPRT protein (Western blot): undetectable levels of HPRT; also recorded: non-detectable
HPRT protein [5]; [11]
  HPRT protein (Western blot): remained undetectable

## gRNA 18: sgRNA guide and PAM TTATGCTGAGGATTTGGAAAGGG, HPRT 1 target Exon 2 (listed as DNA, chemistry not given here)
[9]
  cell viability under 6-TG selection: more variable viability
HPRT protein [5]; 72 hours post-electroporation, no 6-TG selection, listed as guide 18
  HPRT protein (Western blot): reduced compared to wildtype; also recorded: detectable levels of HPRT protein
HPRT protein [5]; [11]
  HPRT protein (Western blot): limited to no detectable levels of HPRT
HPRT1 gene [10]
  editing (ICE scoring), in words: efficient editing

## gRNA 19: sgRNA guide and PAM GTGCTTTGATGTAATCCAGCAGG, HPRT 1 target Exon 3 (listed as DNA, chemistry not given here)
[9]
  cell viability under 6-TG selection: more variable viability
HPRT protein [5]; 72 hours post-electroporation, no 6-TG selection, listed as guide 19
  HPRT protein (Western blot): reduced compared to wildtype; also recorded: detectable levels of HPRT protein
HPRT protein [5]; [11]
  HPRT protein (Western blot): limited to no detectable levels of HPRT
HPRT1 gene [10]
  editing (ICE scoring), in words: zero editing

## gRNA 22: sgRNA guide and PAM GAAGTATTCATTATAGTCAAGGG, HPRT 1 target Exon 8 (listed as DNA, chemistry not given here)
HPRT protein [5]; 72 hours post-electroporation, no 6-TG selection, listed as guide 22
  HPRT protein (Western blot): undetectable levels of HPRT; also recorded: non-detectable
HPRT protein [5]; [11]
  HPRT protein (Western blot): remained undetectable
